Source: patent publication US6855730B2, “3-methylidenyl-2-indolinone modulators of protein kinase” (Sugen, Inc., priority 1998, dated 2005)

Columns and labels:
human flk-1 = molecular target: T1, human flk-1 (Homo sapiens, UniProt P35968); test: Biochemical FLK-1 assay (flk-1 autophosphorylation ELISA); settings: read-out: bio FLK1 IC50 (μM) % if inhibition at 100
T1 construct: host or cells: Flk-1/NIH cells (NIH fibroblasts)
Method in brief: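 Flk-1 from lysates of NIH fibroblasts over-expressing human flk-1 (50 μg/well) was captured on anti-flk-1 antibody-coated plates, then autophosphorylated with test compounds and ATP (0.3 mM working solution) for 60 min at room temperature before EDTA stop. Phosphotyrosine was detected with biotinylated 4G10, avidin-biotin peroxidase and TMB at 450 nm.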

src protein kinase = molecular target: T2, src protein kinase (Gallus gallus, UniProt P00523); test: Biochemical SRC assay (phosphorylation of biotinylated peptide); settings: read-out: bio src IC50
T2 construct: host or cells: Schizosaccharomyces pombe SP200

[1] = molecular target: T3, 3T3 cell line genetically engineered to express human PDGF-R (Homo sapiens, UniProt P09619); test: PDGF-induced BrdU incorporation assay; assay type: cell-based; settings: read-out: PDGF-Induced BrdU Incorp. IC50
T3 construct: expressed in transfected cells; host or cells: 3T3

T1 sequence (P35968 20-1356): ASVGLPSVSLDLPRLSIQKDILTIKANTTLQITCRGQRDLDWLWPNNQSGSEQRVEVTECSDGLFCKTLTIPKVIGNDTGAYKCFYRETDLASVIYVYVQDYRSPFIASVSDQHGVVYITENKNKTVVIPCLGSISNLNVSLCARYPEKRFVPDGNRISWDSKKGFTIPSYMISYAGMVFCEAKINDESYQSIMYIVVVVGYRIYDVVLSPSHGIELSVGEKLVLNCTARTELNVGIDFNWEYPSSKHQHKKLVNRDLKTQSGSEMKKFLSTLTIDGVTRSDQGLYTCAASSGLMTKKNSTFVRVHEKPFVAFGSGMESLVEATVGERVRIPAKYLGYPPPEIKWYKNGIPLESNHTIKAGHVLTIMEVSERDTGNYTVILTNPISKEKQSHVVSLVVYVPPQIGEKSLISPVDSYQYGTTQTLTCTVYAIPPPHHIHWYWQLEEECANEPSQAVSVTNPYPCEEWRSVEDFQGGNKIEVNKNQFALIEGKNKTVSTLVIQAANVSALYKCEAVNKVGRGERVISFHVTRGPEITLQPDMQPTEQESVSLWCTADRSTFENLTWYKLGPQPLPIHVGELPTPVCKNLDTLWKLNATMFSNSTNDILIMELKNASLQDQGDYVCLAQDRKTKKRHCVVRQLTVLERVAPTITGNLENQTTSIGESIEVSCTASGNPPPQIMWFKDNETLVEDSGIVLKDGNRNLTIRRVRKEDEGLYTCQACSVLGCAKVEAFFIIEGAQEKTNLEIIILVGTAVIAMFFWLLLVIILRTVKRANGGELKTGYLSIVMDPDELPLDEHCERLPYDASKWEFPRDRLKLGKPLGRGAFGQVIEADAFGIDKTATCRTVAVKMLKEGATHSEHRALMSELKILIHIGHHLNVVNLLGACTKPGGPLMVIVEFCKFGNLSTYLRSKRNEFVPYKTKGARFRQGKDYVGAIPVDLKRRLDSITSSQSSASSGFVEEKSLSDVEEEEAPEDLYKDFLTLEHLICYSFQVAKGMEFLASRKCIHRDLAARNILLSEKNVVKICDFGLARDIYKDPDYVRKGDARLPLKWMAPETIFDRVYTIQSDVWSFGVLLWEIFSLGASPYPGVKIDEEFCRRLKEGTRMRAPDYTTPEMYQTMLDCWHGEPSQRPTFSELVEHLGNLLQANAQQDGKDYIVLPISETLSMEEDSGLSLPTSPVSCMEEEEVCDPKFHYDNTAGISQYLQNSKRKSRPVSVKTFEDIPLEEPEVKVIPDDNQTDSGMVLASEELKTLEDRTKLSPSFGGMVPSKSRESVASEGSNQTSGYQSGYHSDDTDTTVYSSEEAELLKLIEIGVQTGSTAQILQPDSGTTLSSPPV

| IC50 (human flk-1) | IC50 (src protein kinase) | IC50 [1] | Structure (SMILES) |
| --- | --- | --- | --- |
| 0.06 µM | 110 nM | 2.9 µM | O=C(O)CCc1c(/C=C2\C(=O)Nc3ccccc32)[nH]c2c1CCCC2 [Example 190, 3-[2-(2-Oxo-1,2-dihydro-indol-3-ylidenemethyl)-4,5,6,7-tetrahydro-1H-indol-3-yl]-propionic acid] |
| 0.03 µM | 10500 nM | 1.4 µM | O=C(O)CCc1c(/C=C2\C(=O)Nc3ccc(Br)cc32)[nH]c2c1CCCC2 [Example 192, 3-[2-(5-Bromo-2-oxo-1,2-dihydroindol-3-ylidenemethyl)-4,5,6,7-tetrahydro-1H-indol-3yl]-propionic acid] |
| 0.02 µM | 48600 nM | 13.5 µM | Cc1cccc2c1/C(=C/c1[nH]c3c(c1CCC(=O)O)CCCC3)C(=O)N2 [Example 193, 3-[2-(4-Methyl-2-oxo-1,2-dihydroindol-3-ylidenemethyl)-4,5,6,7-tetrahydro-1H-indol-3-yl]-propionic acid] |
| 0.001 µM | 20600 nM | 14.2 µM | Cc1ccc2c(c1)/C(=C/c1[nH]c3c(c1CCC(=O)O)CCCC3)C(=O)N2 [Example 194, 3-[2-(5-Methyl-2-oxo-1,2-dihydroindol-3-ylidenemethyl)-4,5,6,7-tetrahydro-1H-indol-3-yl]-propionic acid] |
| 0.03 µM | 260 nM | 3.7 µM | O=C(O)CCc1c(/C=C2\C(=O)Nc3cc(Cl)ccc32)[nH]c2c1CCCC2 [Example 195, 3-[2-(6-Chloro-2-oxo-1,2-dihydroindol-3-ylidenemethyl)-4,5,6,7-tetrahydro-1H-indol-3-yl]-propionic acid] |
| 7.44 µM | 2340 nM | 4.2 µM | CN(C)CCCc1c(/C=C2\C(=O)Nc3ccccc32)[nH]c2c1CCCC2 [Example 198, 3-[3-(3-Dimethylaminopropyl)-4,5,6,7-tetrahydro-1H-indol-2-ylmethylene]-1,3-dihydroindol-2-one] |
| 0.97 µM | – | 8.6 µM | O=C1Nc2ccccc2/C1=C/c1[nH]c2c(c1CCC(=O)N1CCOCC1)CCCC2 [Example 200, 3-[3-(3-Morpholin-4-yl-3-oxopropyl)-4,5,6,7-tetrahydro-1H-indol-2-ylmethylene]-1,3-dihydroindol-2-one] |
| 0.14 µM | – | – | O=C(O)CCc1c(/C=C2\C(=O)Nc3ncccc32)[nH]c2c1CCCC2 [Example 203, 3-[2-(2-Oxo-1,2-dihydropyrrolo[2,3-b]pyridin-3-ylidenemethyl)-4,5,6,7-tetrahydro-1H-indol-3-yl]-propionic acid] |
| 0.36 µM | 4440 nM | – | COc1cccc(-c2ccc3c(c2)NC(=O)/C3=C\c2[nH]c3c(c2CCC(=O)O)CCCC3)c1 [Example 204, 3-{2-[6-(3-Methoxyphenyl)-2-oxo-1,2-dihydro-indol-3-ylidenemethyl]-4,5,6,7-tetrahydro-1H-indol-3-yl}-propionic acid] |
| < 0.78 µM | 1840 nM | – | CC(C)NS(=O)(=O)c1ccc2c(c1)C(=Cc1[nH]c3c(c1CCC(=O)O)CCCC3)C(=O)N2 [Example 208, 3-[2-(5-Isopropylaminosulfonyl-2-oxo-1,2-dihydroindol-3-ylidenemethyl)-4,5,6,7-tetrahydro-1H-indol-3-yl]-propionic acid] |

Further lines, the compound ahead of its results:

| Structure (SMILES) | IC50 (human flk-1) | IC50 (src protein kinase) | IC50 [1] |
| --- | --- | --- | --- |
| COc1c(C(C)C)cc(/C=C2/C(=O)Nc3ccccc32)cc1C(C)C [Example 1, 3-(3,5-Diisopropyl-4-methoxybenzylidene)-1,3-dihydroindol-2-one] | > 50 µM | – | – |
| COc1c(C(C)C)cc(/C=C2/C(=O)Nc3ccc(Cl)cc32)cc1C(C)C [Example 2, 5-Chloro-3-(3,5-diisopropyl-4-methoxybenzylidene)-1,3-dihydroindol-2-one] | > 50 µM | – | – |
| O=C1Nc2ccc(N=Cc3cc4ccccc4[nH]3)cc2C1=Cc1cc2ccccc2[nH]1 [Example 171, 3-(1H-indol-2-ylmethylene)-5-[(1H-indol-2-ylmethylene)-amino]-1,3-dihydroindol-2-one] | 20.4 µM | – | – |
| O=C(CCc1c(/C=C2\C(=O)Nc3ccccc32)[nH]c2c1CCCC2)NCCN1CCOCC1 [Example 202, N-(2-Morpholin-4-ylethyl)-3-[2-(2-oxo-1,2-dihydroindol-3-ylidenemethyl)-4,5,6,7-tetrahydro-1H-indol-3-yl]-propionamide] | 0.63 µM | > 50000 nM | 5.2 µM |
| COc1ccc(-c2ccc3c(c2)NC(=O)/C3=C\c2[nH]c3c(c2CCC(=O)O)CCCC3)cc1 [Example 205, 3-{2-[6-(4-Methoxyphenyl)-2-oxo-1,2-dihydro-indol-3-ylidenemethyl]-4,5,6,7-tetrahydro-1H-indol-3-yl}-propionic acid] | 0.52 µM | 1340 nM | – |
| O=C(O)CCc1c(/C=C2\C(=O)Nc3cc(-c4ccccc4)ccc32)[nH]c2c1CCCC2 [Example 206, 3-[2-(2-oxo-6-phenyl-1,2-dihydroindol-3-ylidenemethyl)-4,5,6,7-tetrahydro-1H-indol-3-yl]-propionic acid] | 6.08 µM | 740 nM | – |
| O=C(O)CCc1ccccc1/C=C1/C(=O)Nc2ccccc21 [Example 214, 3-[2-(2-Oxo-1,2-dihydroindol-3-ylidenemethyl)-phenyl]-propionic acid] | 50.6 µM | > 100000 nM | – |
| Cc1c[nH]c(/C=C2\C(=O)Nc3ccc(Cl)cc32)c1CCC(=O)O [Example 216, 3-[2-(5-Chloro-2-oxo-1,2-dihydroindol-3-ylidenemethyl)-4-methyl-1H-pyrrol-3-yl]-propionic acid] | 2.91 µM | 4750 nM | – |
| COc1ccc2c(c1)NC(=O)/C2=C\c1[nH]cc(C)c1CCC(=O)O [Example 217, 3-[2-(6-Methoxy-2-oxo-1,2-dihydroindol-3-ylidenemethyl)-4-methyl-1H-pyrrol-3-yl]-propionic acid] | 1.47 µM | 3680 nM | 8.7 µM |
| Cc1c[nH]c(/C=C2\C(=O)Nc3cccc(C)c32)c1CCC(=O)O [Example 218, 3-[2-(4-Methyl-2-oxo-1,2-dihydroindol-3-ylidenemethyl)-4-methyl-1H-pyrrol-3-yl]-propionic acid] | 0.2 µM | – | 24.8 µM |
| Cc1c[nH]c(C=C2C(=O)Nc3cc(Cl)ccc32)c1CCC(=O)O [Example 219, 3-[2-(6-Chloro-2-oxo-1,2-dihydroindol-3-ylidenemethyl)-4-methyl-1H-pyrrol-3-yl]-propionic acid] | 0.19 µM | 80 nM | 7.9 µM |
| Cc1c[nH]c(/C=C2\C(=O)Nc3ccc(Br)cc32)c1CCC(=O)O [Example 220, 3-[2-(5-Bromo-2-oxo-1,2-dihydroindol-3-ylidenemethyl)-4-methyl-1H-pyrrol-3-yl]-propionic acid] | 0.35 µM | 6480 nM | 8.5 µM |
| COc1cccc(-c2ccc3c(c2)NC(=O)/C3=C\c2[nH]cc(C)c2CCC(=O)O)c1 [Example 223, 3-{2-[6-(3-Methoxyphenyl)-2-oxo-1,2-dihydro-indol-3-ylidenemethyl]-4-methyl-1H-pyrrol-3-yl}-propionic acid] | 28.2 µM | 1060 nM | – |
| CCOc1cccc(-c2ccc3c(c2)NC(=O)/C3=C\c2[nH]cc(C)c2CCC(=O)O)c1 [Example 224, 3-{2-[6-(3-Ethoxyphenyl)-2-oxo-1,2-dihydro-indol-3-ylidenemethyl]-4-methyl-1H-pyrrol-3-yl}-propionic acid] | 1 µM | 1160 nM | – |
